Values joined by “and” are separate entries in the source; they are usually repeats but may differ in a detail not shown here. Equal entries are not always repeated. “Also recorded” adds a separate entry of the source. One block for each substance: values may come before it. Where no end group is shown, it is not given here.
Legend:
CaMKII [1] = assay type: biochemical
Procedure: CaMKII activity assays. Standard CaMKII assays were done for 1 min at 30° C. previously described, with 20 nM CaMKII (subunit, not holoenzyme concentration), 50 mM PIPES pH 7.2, 0.1 mg/ml BSA, 10 mM MgCl2, 100 μM [γ-^32P] ATP (˜1 Ci/mmol), 1 mM CaCl2, 1-2 μM CaM, and 30-60 μM AC2 peptide (or syntide2). The reactions were spotted onto Whatman P81 phosphocellulose paper rectangles (˜2×2.5 cm). To remove free radioactivity, the paper rectangles were rinsed and washed for 30 min under agitation in 0.5% phosphoric acid or water. […] Radioactivity of the bound peptides was quantified in a Beckman 6000TA scintillation counter by the Cherenkov method. Any changes of the standard protocol were done as indicated. For assays of the GFP-CaMKIIα mutants, kinase amounts were normalized by GFP fluorescence in the extract, and total protein was adjusted with Cos-7 extracts.

CaMKIV = CaMKIV (Homo sapiens, UniProt Q16566); test: Kinase panel: CaMKIV; assay type: biochemical; conditions: 5 μM
Procedure: (§3) Kinase panels. A panel of different kinases was tested utilizing a kinase profiling service (Upstate Biotechnology).

PKC = PKC (Homo sapiens, UniProt P17252); test: Kinase panel: PKC; assay type: biochemical; conditions: 5 μM
Procedure: as §3

CaMKI = CaMKI (Homo sapiens, UniProt Q14012); test: CaMKI activity / inhibition; assay type: biochemical
Sequence of CaMKI (Q14012 whole entry, species assumed): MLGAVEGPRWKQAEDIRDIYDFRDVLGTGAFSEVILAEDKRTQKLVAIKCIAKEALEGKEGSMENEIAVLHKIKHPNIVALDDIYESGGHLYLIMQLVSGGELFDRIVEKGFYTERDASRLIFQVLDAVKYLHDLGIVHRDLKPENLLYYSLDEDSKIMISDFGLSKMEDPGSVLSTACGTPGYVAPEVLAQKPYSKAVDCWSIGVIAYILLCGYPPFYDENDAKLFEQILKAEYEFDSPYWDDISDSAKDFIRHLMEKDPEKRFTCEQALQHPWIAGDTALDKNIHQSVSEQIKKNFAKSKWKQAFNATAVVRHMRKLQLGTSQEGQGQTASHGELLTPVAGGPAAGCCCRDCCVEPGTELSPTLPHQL
From the text: For curve fit, the Hill coefficient was set as 1.

protein kinase A (PKA) = protein kinase A (PKA) (Homo sapiens, UniProt P17612); test: Kinase panel for CN19o: PKA; assay type: biochemical; conditions: 5 μM
Procedure: (§1) Additionally, CN19o was tested for effects on a panel of other kinases (see for example FIG. 25B). This panel included other CaM kinase family members (CaMKIV, DAPK1, AMPK) and other basophilic multifunctional kinases (protein kinase A (PKA) and protein kinase C (PKC)). […] Thus, CN19o (SEQ ID NO: 24) inhibits CaMKII both with remarkable potency and high selectivity.

DAPK1 = DAPK1 (Homo sapiens, UniProt P53355); test: Kinase panel for CN19o: DAPK1; assay type: biochemical; conditions: 5 μM
Sequence of DAPK1 (P53355 whole entry, species assumed): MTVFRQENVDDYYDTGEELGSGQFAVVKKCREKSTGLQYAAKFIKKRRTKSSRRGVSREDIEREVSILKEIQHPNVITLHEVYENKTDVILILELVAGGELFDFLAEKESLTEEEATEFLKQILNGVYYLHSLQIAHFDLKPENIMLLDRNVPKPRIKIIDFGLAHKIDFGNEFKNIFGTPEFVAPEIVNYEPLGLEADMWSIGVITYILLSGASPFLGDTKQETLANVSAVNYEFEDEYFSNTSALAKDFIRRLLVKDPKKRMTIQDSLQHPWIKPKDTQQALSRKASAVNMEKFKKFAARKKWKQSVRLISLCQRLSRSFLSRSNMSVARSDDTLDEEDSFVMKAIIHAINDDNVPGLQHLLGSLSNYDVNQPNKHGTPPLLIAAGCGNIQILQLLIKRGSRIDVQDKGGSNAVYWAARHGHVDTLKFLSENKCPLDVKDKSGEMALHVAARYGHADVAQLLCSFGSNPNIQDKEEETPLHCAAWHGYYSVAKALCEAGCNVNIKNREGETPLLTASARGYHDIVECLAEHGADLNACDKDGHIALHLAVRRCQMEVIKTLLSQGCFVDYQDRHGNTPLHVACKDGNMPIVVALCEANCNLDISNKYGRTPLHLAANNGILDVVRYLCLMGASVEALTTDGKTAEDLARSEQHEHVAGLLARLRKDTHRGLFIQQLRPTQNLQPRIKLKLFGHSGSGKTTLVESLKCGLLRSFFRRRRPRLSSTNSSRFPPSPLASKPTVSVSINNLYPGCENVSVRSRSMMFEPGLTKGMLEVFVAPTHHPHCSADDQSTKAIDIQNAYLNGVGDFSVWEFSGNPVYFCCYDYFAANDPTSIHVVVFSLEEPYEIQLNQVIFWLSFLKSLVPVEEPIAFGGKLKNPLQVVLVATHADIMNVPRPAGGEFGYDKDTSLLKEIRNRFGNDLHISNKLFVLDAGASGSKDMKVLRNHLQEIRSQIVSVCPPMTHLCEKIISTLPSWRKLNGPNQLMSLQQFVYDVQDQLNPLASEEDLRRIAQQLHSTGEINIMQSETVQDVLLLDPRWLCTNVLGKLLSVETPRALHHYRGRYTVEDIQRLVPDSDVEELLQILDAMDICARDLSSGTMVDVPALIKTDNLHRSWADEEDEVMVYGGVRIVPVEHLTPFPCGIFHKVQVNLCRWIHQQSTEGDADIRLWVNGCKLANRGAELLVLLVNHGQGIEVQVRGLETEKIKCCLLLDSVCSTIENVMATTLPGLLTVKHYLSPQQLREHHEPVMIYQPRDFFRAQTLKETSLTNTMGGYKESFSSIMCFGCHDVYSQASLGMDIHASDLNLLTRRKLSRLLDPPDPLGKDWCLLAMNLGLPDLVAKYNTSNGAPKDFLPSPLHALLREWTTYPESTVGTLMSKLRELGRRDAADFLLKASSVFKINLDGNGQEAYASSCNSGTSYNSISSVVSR
Procedure: as §1

AMPK = test: Kinase panel for CN19o: AMPK; assay type: biochemical; conditions: 5 μM
Procedure: as §1

CaMKII [2] = test: Kinase panel (kinase profiling service): CaMKII; assay type: biochemical
Procedure: as §3

[3] = molecular target: T1, CaMKII binding to GST-NR2B-c (Homo sapiens, UniProt Q9UQM7); test: Ca2+/CaM-induced CaMKII binding to immobilized GST-NR2B-c; conditions: Western blot of eluted CaMKII
T1 construct: made in house; host or cells: CaMKII: baculovirus/Sf9; GST-NR2B-c and CaM: bacteria
Procedure: CaMKII binding to NR2B-c was assessed as previously described. Briefly, GST-NR2B-c was immobilized on anti-GST coated microtiter plates, then overlaid with 100 nM CaMKII in presence of Ca^2+/CaM and 1 or 5 μM of various CN peptides. After extensive wash, protein was eluted from the plates by boiling in SDS-loading buffer. Eluted CaMKII was detected by Western-blot as described above.

CaMKII [4] = molecular target: T2, CaMKII (Homo sapiens, UniProt Q9UQM7); test: CaMKII auto- and protein-phosphorylation (MAP2, T286, T305; immuno-blot); assay type: biochemical
T2 construct: made in house; host or cells: baculovirus/Sf9 cells
Procedure: CaMKII auto- and protein-phosphorylation. 10 nM MAP2 (˜140 nM phosphorylation sites) was used instead of substrate peptide, and reaction times were 5 min, unless indicated otherwise. CaMKII concentration was 100 nM subunits (=8.3 nM holoenzymes). Auto- and MAP2-phosphorylation were assessed by Immuno-blot analysis previously derived (Bayer et al., 2002, incorporated herein by reference) with phospho-T286- or -T305-specific antibodies (1:500; PhosphoSolutions) and an anti-phospho-Thr antibody (1:500; Zymed), respectively. Total CaMKIIα was detected with CBα2 antibody (1:2000; GIBCO). Protein were separated on 10% poly-acrylamid SDS Gels, and electro-blotted onto “Protran” 0.2 μm pore nitrocelluse filters (e.g. Schleicher & Schull) or onto PVDF filters (e.g. Perkin Elmer). Alternatively, for quantitative analyses, a vacuum-driven slot-blot manifold (e.g. Schleicher & Schull) was used for transfer onto PVDF membranes. PVDF membranes were air-dried for 15 min, then wetted in Methanol. Blots were blocked in 5% milk in TBS-T (Tris-buffered saline pH 7.6 with 0.1% Tween-20). Antibodies were incubated for 45-60 min at room temperature in 2.5% milk in TBS-T; for the anti-phospho-T305 antibody, 2.5% BSA was used instead. After secondary antibody incubation (anti-mouse or anti-rabbit horseradish peroxidase conjugate; Amersham; 1:4000), detection was done using the “Western Lightning” system (Perkin Elmer) and exposure to “Hyperfilm” (Amersham). For quantitative analysis, chemoluminescence was captured using a ChemiImager 4400 imaging system (Alpha Innotek) instead of film. Only non-saturated images were analyzed, using AlphaEase software.

hippocampal neurons = test: Imaging of neuronal filopodia motility; assay type: cell-based, rat; conditions: 20 min incubation
Procedure: In another example, motility of hippocampal neurons was analyzed. […] Images of GFP expressing hippocampal neurons (5-6 days in vitro) were acquired at 30° C. in 20 s intervals in order to assess motility.
Imaging of neuronal filopodia motility was done similarly as previously described. Hippocampal cultures were prepared from newborn Sprague Dawley rats (Harlan) as previously described, plated onto poly-D-lysine coated glass bottom dishes (MatTek) at a density of ˜2.5×10^6 cells/cm^2 and maintained in Neurobasal A medium with penicillin/streptomycin (50 units/ml), glutamax (2 mM) and B27 supplement (Invitrogen). […] After 5 days in vitro, neurons were transfected with a GFP expression construct (Clonetech) using lipofectamine 2000 (Invitrogen), as described. On the next day neurons were imaged in culture medium on for example, a Zeiss Axiovert 200M systems equipped with a 40× oil immersion objective, Cool Snap HQ CCD camera (Roeper Scientific), Xenon lamp LB-LS/17 (Sutter Instruments) and climate control set to 30° C. and 5% CO2. Fluorescence Images were acquired and analyzed using SlideBook software (Intelligent Imaging Innovations). 16 images were taken in 20 s time intervals, at 100 ms exposure time and bin factor 2. Subtraction image (Δ image) stacks were generated by subtracting one stack (first image deleted) from its duplicate (last image deleted). […]

Langerhans' islets = test: Glucose-induced insulin secretion from isolated Langerhans' islets; assay type: cell-based, rat; conditions: 11 mM glucose; EGTA 0.5 mM, KN93 10 μM, antCN27 5 μM, tatCN21 5 μM
Procedure: Insulin secretion. Langerhans' islets acutely isolated from adult male Wistar rats (Harlan) were obtained. […] Inhibitors or EGTA were added 30 min before stimulation. Insulin secreted into the medium during 90 min stimulation was measured using an ELISA kit (CrystalChem).

[5] = tested on: hippocampal and cortical cultures; test: Glutamate induced neuronal cell death measured by LDH release; assay type: cell-based, rat
Procedure: In another example, neuronal cell death is measured by LDH release. In this exemplary method, glutamate was used to induce neuronal cell death, A portion of CaMKIIN was fused to a cell penetrating molecule to generate tatCN21a construct.

[6] = tested on: 10DIV hippocampal neurons; test: NMDA induced cell death; assay type: cell-based; conditions: NMDA plus CNQX 5 minutes, assayed 24 hours after insult
Procedure: Neurons were co-transfected with siRNA or non-targeting RNA (NT) at 8DIV and were assayed at day 10. […] Cells were treated with 300 mM NMDA plus 50 mM CNQX (an AMPAR inhibitor) for 5 minutes and cell death was assayed 24 hours after insult. […] Increased AMPAR expression is thought to lead to increased cell death. Thus, by inducing cell death with NMDA and an AMPAR inhibitor, the AMPAR component was reduced.

CaMKII [7] = molecular target: T2, CaMKII; test: Autonomous CaMKII activity (pre-autophosphorylated CaMKII); assay type: biochemical
Procedure: (§2) Stimulated CaMKII activity was assessed using purified CaMKII, [γ^32P]ATP, and the CaMKII substrate, syntide2. Reaction was initiated by addition of calcium and calmodulin. To measure autonomous activity, CaMKII was pre-autophosphorylated by incubation with calcium and calmodulin, which was then chelated by addition of EDTA prior to adding the kinase to syntide2 and [γ^32P]ATP. […] To measure self-association, purified CaMKII was incubated for five minutes with 1mM ADP, calcium and calmodulin, and the appropriate inhibitor. The reaction mixture was then centrifuged to pellet the self-associated kinase. The supernatant (S) was removed and saved and the pellet (P) was resuspended. Both were then resolved by SDS-PAGE and western-blotted for CaMKII. Self-associated kinase is found in the pellet.

CaMKII [8] = molecular target: T2, CaMKII; test: CaMKII self-association in vitro; assay type: biochemical
Procedure: as §2

calmodulin (CaM) = calmodulin (CaM) (Homo sapiens, UniProt P0DP23); test: Binding to calmodulin (slot blot, blot overlay, TA-CaM competition with CBD)
Procedure: TA-labeled CaM represents reduced fluorescence after binding to CaMKII or its CaM binding domain (CBD; −0.05 nM kD for CaM^5; see also FIG. 9G).
Measured was AC2 phosphorylation as described^4. Error bars show s.e.m.

IC50 (CaMKII [1]; CaMKII concentration lowered to 0.1 nM, read-out: IC50 of CaMKII inhibition): ~0.75 nM and 0.75 nM and < 1 nM
effect on kinase activity of CaMKIV (CaMKIV): did not significantly affect
effect on kinase activity of PKC (PKC): did not significantly affect
IC50 (CaMKI): ~38000 nM
effect on kinase activity of CaMKI (CaMKI; 5 μM): did not significantly affect
selectivity for CaMKII vs CaMKI (CaMKI; ratio of IC50 values): about 50,000 fold
effect on kinase activity of PKA (protein kinase A (PKA)): did not significantly affect
effect on kinase activity of DAPK1 (DAPK1): did not significantly affect
effect on kinase activity of AMPK (AMPK): did not significantly affect
Substance: KRAPKLGQIGRQKAVDIED [CN19o]
effect on CaMKII activity (CaMKII [1]; 5 nM): blocked CaMKII activity nearly completely
effect of further mutation on potency of CaMKII inhibition (CaMKII [1]; CN19a2v background): increased potency even further

Substance: tatCN21: CN21 fused to the cell penetrating tat sequence (YGRKKRRQRRRKRPPKLGQIGRSKRVVIEDDR)
CaMKII-mediated AC2/AC3 phosphorylation at varying CaM concentrations (CaMKII [1]; 1 μM peptide): strongly inhibited
calcium and calmodulin stimulated CaMKII activity (CaMKII [1]; substrate syntide2): inhibit calcium and calmodulin stimulated CaMKII activity
CaMKII activity in kinase panel (CaMKII [2]; 1 μM peptide): completely blocked CaMKII activity
CaMKII activity in kinase panel (CaMKII [2]; 5 μM peptide): blocked CaMKII activity
effect on CaMKI activity (CaMKI): dramatically reduces CaMKI activity
CaMKII binding to immobilized GST-NR2B-c / NR2B [3]: efficiently blocked
CaMKII binding to immobilized GST-NR2B-c / NR2B ([3]; listed as TatCN21): inhibited binding
MAP2 (substrate) phosphorylation by CaMKII (CaMKII [4]; 1-5 μM peptide): blocked MAP2
CaMKII T286 auto-phosphorylation (CaMKII [4]; CN peptides 1-5 μM, KN93 10 μM): not T286 phosphorylation
motility in hippocampal neurons (hippocampal neurons): inhibits motility in hippocampal neurons
glucose-induced insulin secretion (Langerhans' islets): inhibited
glutamate induced cell death ([5]; 7DIV cortical, added 1-6 hours post insult): inhibits glutamate induced cell death
glutamate induced neuronal cell death ([5]; added 1 h after the insult): protective also when added 1 h after the insult
glutamate induced neuronal cell death ([5]; added 1 h after the insult, listed as tatCN21a): also when added 1h after the insult
glutamate induced neuronal cell death ([5]; present during the insult): reduce by half
glutamate induced neuronal cell death ([5]; present during the insult, listed as tatCN21a): inhibited glutamate induced neuronal cell death
NMDA induced cell death [6]: reduces NMDA-induced cell death
autonomous CaMKII activity (CaMKII [7]): inhibits autonomy; also recorded: blocks not only stimulated but also autonomous CaMKII activity
CaMKII self-association in vitro (CaMKII [8]): inhibited
competition with CBD for binding of TA-labeled CaM (calmodulin (CaM)): did not show any competition and not

From patent US10300107B2, “Compositions and methods for CaMKII inhibitors and uses thereof” (THE REGENTS OF THE UNIVERSITY OF COLORADO, priority 2007, dated 2019)
